Laboratory results reported in patent US20190055267A1, “ORGANOTRIFLUOROBORATE MIMICS OF AMINO ACIDS AND USES THEREOF” (The United States of America, as represented by the …, priority 2015, published 2019).
Read-outs that look alike come from different tables or passages of the source.

Tests used:
[1] = Solvolysis of the BF3 moiety in phosphate buffer; type: physicochemical; conditions: for t1/2/min: half-life in phosphate buffer at pH 7.4; for pKB-F: pK of the first fluorine of the BF3− moiety; for k (solv)/min^−1: rate of solvolysis, phosphate buffer pH 7.4
Source text: See also, Liu et al., Chem. Eur. J., 2015, 21:3924-8, incorporated herein by reference in its entirety.

[2] = COOH group of the corresponding amino acid; cited from earlier work
[3] = system: UM22B cells; experiment: Competitive inhibition assay of 18F-Leu-BF3 uptake; type: cell-based; conditions: 60 min incubation
Protocol: To study the specificity of BAA transportation, a competitive inhibition assay was performed using UM22B cells in the presence of natural amino acid and transporter inhibitor.

[4] = system: U87MG cells; experiment: In vitro competitive inhibition of boramino acid uptake by natural amino acids and transporter inhibitors; set-up: inhibition: dose or concentration left out as unconfirmed; conditions: for inhibition / inhibition at 25000 µM: Homo sapiens, U-87 MG, 1 h; for inhibition: read-out: inhibition of uptake of 18F-Leu-BF3
Protocol: The U87MG cells were in Dulbecco modified Eagle medium and Minimum Essential Medium under a humidified atmosphere with 5% CO2 at 37° C. The culture media was supplemented with 10% fetal bovine serum, 100 U/mL penicillin, and 100 μg/mL streptomycin. […] Prior to incubation, the cells were washed with phosphate-buffered saline (PBS). […] The cells were then washed 3 times with ice-cold PBS, quenched with 0.1 M of NaOH and the cell-bound radioactivity was counted using a gamma counter. Uptake is defined as percentage of added radioactive dose (% AD).
The control is incubation with BAA only without competitor.

[5] = system: amino acid transporters; conditions: natural amino acid, comparison value; read-out: KM/μM, AA; cited from earlier work
[6] = read-out: inhibition of uptake of 18F-Phe-BF3
[7] = read-out: inhibition of uptake of 18F-Ala-BF3
[8] = read-out: inhibition of uptake of 18F-Pro-BF3
[9] = U87MG cells, competitor at 25 mM, 60 min incubation

SMILES | t1/2/min [1] [h] | pKB-F [1] | k (solv)/min^−1 [1] [min⁻¹] | pka of corres. COOH [2] | inhibition [4] [%] | inhibition at 25000 µM [4, 6] [%] | inhibition at 25000 µM [4, 7] [%] | further results
C[C@H]([NH3+])[B-](F)(F)F [Ala-BF3] | 56.42 | 3.6895 | 0.0002044 | 2.35 |  |  |  | 
NC1(C(=O)O)CC2CCC1C2 (stereo not drawn) [BCH, 2-amino-2-norbornanecarboxylic acid] |  |  |  |  | 77.4 | 72.1 |  | inhibition of cell uptake of 18F-Leu-BF3 [3]: 83.0%; inhibition of uptake of 18F-Leu-BF3 ([4]; U87MG cells, BCH with sodium-free medium, 60 min incubation): 83.0%
C[C@H](N)C(=O)O [L-Alanine] |  |  |  |  | 38.9 | 60.3 | ~90 | Km [5]: 370 µM
N=C(N)NCCC[C@H](N)C(=O)O [L-Arginine] |  |  |  |  | 23 | 42.6 | 58.2 | inhibition at 25000 µM [4, 8]: 15.6%
N[C@@H](CCC(=O)O)C(=O)O [L-Glutamate] |  |  |  |  |  |  |  | inhibition of uptake of 18F-Ala-BF3 [4, 9]: 50.3%; inhibition of uptake of 18F-Phe-BF3 [4, 9]: 13.0%; inhibition of uptake of 18F-Pro-BF3 [4, 9]: 0.2%
CC(C)C[C@H](N)C(=O)O [L-leucine] |  |  |  |  | ~98 |  |  | Km [5]: 19.7 ± 2.4 µM; inhibition of cell uptake of 18F-Leu-BF3 [3]: 94.7%
N[C@@H](Cc1ccccc1)C(=O)O [L-phenylalanine] |  |  |  |  |  | ~80 | 71 | Km [5]: 18.7 ± 4.1 µM; inhibition at 25000 µM [4, 8]: 0.1%
CC(C)C[C@H]([NH3+])[B-](F)(F)F [Leu-BF3] | 60.25 | 3.7181 | 0.0001914 | 2.33 |  |  |  | 
CNC(C)(C)C(=O)O [MeAIB, 2-methylaminoisobutyric acid] |  |  |  |  | 24.5 | 17.6 | 39.3 | inhibition at 25000 µM [4, 8]: 39.3%
CSCC[C@H]([NH3+])[B-](F)(F)F [Met-BF3] | 116.4 | 4.0041 | 9.906e-05 | 2.13 |  |  |  | 
[NH3+]C(Cc1ccccc1)[B-](F)(F)F (stereo not drawn) [Phe-BF3] | 92.45 | 3.904 | 0.0001247 | 2.2 |  |  |  | 
